# According to patent US20080124376A1, “OCULAR DEVICES AND METHODS OF MAKING AND USING THEREOF” (NOVARTIS AG, priority 2006, published 2008):
# Counter-ions that a name gives are not always drawn.
# What was measured:
# Type in all cases: physicochemical
# [1] = Drug uptake via absorption into the Dailies matrix from soak solution
# Description: Cromolyn sodium was strongly absorbed by the Dailies matrix. The amount absorbed from a 4% concentration (equivalent to an ophthalmic solution) soak solution was on the order of 1 mg. Approximately 100 μg was released passively during a short burst period, leaving some 900 μg for release by trigger mechanism.
# Ketotifen fumarate was used at much lower levels in ophthalmic solution (0.025%) than cromolyn sodium, which was reflected in the uptake experiments. Ketotifen fumarate was absorbed from a 0.025% solution into the lens at a level of 35 μg, with a modest amount released during a short burst period, leaving approximately 30 μg retained in the matrix. This is a very significant payload in relation to daily requirements.
# [2] = Passive diffusion release from drug-loaded lens / Nelfilcon membrane discs
# Description: Cromolyn sodium was strongly absorbed by the […] matrix. The amount absorbed from a 4% concentration (equivalent to an ophthalmic solution) soak solution was on the order of 1 mg. Approximately 100 μg was released passively during a short burst period, leaving some 900 μg for release by trigger mechanism. […] A mixture of Nelfilcon and cromolyn sodium was polymerised to form a membrane, and 1.5 cm diameter discs were cut out and the release profile examined. The release profile of the directly loaded and the absorbed drug described above were compared. Direct loading levels were much lower (approx. 20 μg per lens) than the 1 mg per lens absorbed from a 4% solution. […] Ketotifen fumarate was used at much lower levels in ophthalmic solution (0.025%) than cromolyn sodium, which was reflected in the uptake experiments. Ketotifen fumarate was absorbed from a 0.025% solution into the lens at a level of 35 μg, with a modest amount released during a short burst period, leaving approximately 30 μg retained in the matrix. This is a very significant payload in relation to daily requirements. […] A mixture of Nelfilcon and ketotifen fumarate was polymerised to form a membrane, and 1.5 cm diameter discs were cut out and the release profile examined. The release profile of the directly loaded and the absorbed drug described above were compared. As with cromolyn sodium, the matrix distribution of the drug loaded directly into the polymer matrix produced differences in release behaviour compared to the absorbed drug.
# [3] = Trigger release in vortex eye model (in vitro in-eye release model); conditions: for triggered release: in eye model (vortex); for trigger release following passive diffusion: drug loaded via absorption into Dailies matrix
# Description: The vortex model is the in vitro in-eye release model described in commonly owned copending US Patent Application Publication No. 2006/0251696 A1 (herein incorporated by reference in its entirety). The experiment is carried out as follows. A contact lens is first blotted dry and immediately is carefully placed into 100 microliter of an extraction medium in an tube (e.g., a centrifuge tube, a scintillation vial, or preferably an Eppendorf microtube) and the microtube is agitated for fifteen seconds using, e.g., a Vibrex vortex mixer. At the end of one hour period, the tube is again agitated using, e.g., a Vibrex vortex mixer, for a further fifteen seconds. The extraction medium is removed from the Eppendorf microtube and 100 microliter of a fresh extraction medium is added. Extraction samples are stored at 25° C. between agitation procedures. The concentration of a guest material extracted out of a lens can be determined according to any methods known to a person skilled in the art.
# [4] = Direct loading of drug into the Nelfilcon macromer (loading level); conditions: drug loaded directly into Nelfilcon macromer
# Description: A mixture of Nelfilcon and cromolyn sodium was polymerised to form a membrane, and 1.5 cm diameter discs were cut out and the release profile examined. The release profile of the directly loaded and the absorbed drug described above were compared. Direct loading levels were much lower (approx. 20 μg per lens) than the 1 mg per lens absorbed from a 4% solution.
# [5] = Release of Rose Bengal from Nelfilcon lenses in PBS and lysozyme solution
# [6] = Release of hyaluronan from Nelfilcon matrix in artificial lacrimal solution
# Description: Using the techniques above, a mixture of Nelfilcon and varying amounts of hyaluronan was polymerised to form a membrane. The amount of hyaluronan loaded into the Nelfilcon macromer was 2, 6.5, and 40 mg hyaluronan/g nelfilcon (30% by weight aqueous solution). The hyaluronan used was approximately 50 kDa, 100 kDa, and 1 million Da.
# The release of hyaluronan from the membrane was investigated by varying the amount and length of the hyaluronan incorporated into the matrix. Release studies were performed by placing each lens in a solution of 5 mL of artificial lacrimal solution at 35° C.
# [7] = Heat stability of Nelfilcon lens with hyaluronan; conditions: lens in 6.5 mg/mL hyaluronan solution, pH 11, 120° C. for 40 minutes; FIG. 3
# Description: Heat stability studies were also performed on the membranes. A lens prepared from 6.5 mg/mL loading of 1 M Da hyaluronan was placed in a tube of 6.5 mg/mL solution of hyaluronan at a pH of 11. The tube was sealed with a total volume of 0.8 mL, and the solution was heated at 120° C. for 40 minutes.
# [8] = Aqueous passive and agitated release from ASM981-loaded Nelfilcon membrane; conditions: membrane of 1% ASM981 in Nelfilcon
# Description: The addition of Pimecrolimus (SDZ ASM981), which is synthesized by Novartis Pharma, in solution form to Nelfilcon macromer increases the liquid content of the macromer. Simple addition of the ASM981 consequently diluted the macromer and photopolymerisation produced wet structurally incoherent product. A membrane composed of 1% ASM981 was prepared by adding 1 g of the ASM981 solution to 5 g of nelfilcon macromer, vortexing for approximately 5 minutes, and removing the lid of the vial to remove excess water. The mass of the ASM981-loaded macromer was allowed to return to its original 5 g. This was conveniently achieved by leaving the mixture overnight on a flatbed shaker under a nitrogen blanket. The mixture was then placed in a membrane mould and polymerised under a static UV lamp. The mixture was successfully polymerised to form a coherent membrane, and the resultant membrane was opaque in appearance.
# [9] = drug loaded directly into Nelfilcon macromer
molecule,measurement,setting,value
O=C(O)c1cc(=O)c2c(OCC(O)COc3cccc4oc(C(=O)O)cc(=O)c34)cccc2o1 [Cromolyn sodium],amount absorbed from soak solution,[1]; 4% concentration soak solution,~1 mg
same,amount released passively during a short burst period,[2]; drug absorbed into Dailies matrix from 4% solution,Approximately 100 μg
same,amount left for release by trigger mechanism,"[2]; drug absorbed into Dailies matrix from 4% solution, after burst",~900 µg
same,passive release,"[2]; drug loaded directly into Nelfilcon macromer, 1.5 cm discs",virtually zero passive release
same,triggered release,[3]; [9],very significant triggered release
same,trigger release following passive diffusion,[3]; vortex eye model,significant release
same,direct loading level,[4],approx. 20 μg per lens
O=C([O-])c1c(Cl)c(Cl)c(Cl)c(Cl)c1-c1c2cc(I)c(=O)c(I)c-2oc2c(I)c([O-])c(I)cc12.[Na+].[Na+] [Rose Bengal],stability of loaded lens in saline solutions,[5]; Nelfilcon lens loaded with Rose Bengal,stable in saline solutions for extended periods of time
same,release in PBS solution with no lysozyme,"[5]; Nelfilcon lens, approximately minute 150, FIG. 4",little to no Rose Bengal was released
same,release in a solution of lysozyme,"[5]; Nelfilcon lens, from minute zero, FIG. 4",released steadily
hyaluronan [1 M Da hyaluronan],release pattern (release rate),"[6]; loading 6.5 mg HA/g nelfilcon, 5 mL artificial lacrimal solution, 35° C., FIG. 1",relatively constant release rate from 2 to 48 hours
same,heat stability: release over time after heating,[7],release curve is similar to that of the release of hyaluronan from the matrix that is not heated
hyaluronan,effect of increasing the amount of hyaluronan on release,"[6]; 2, 6.5, 40 mg hyaluronan/g nelfilcon, FIG. 2",significantly affects the release
CN1CCC(=C2c3ccccc3CC(=O)c3sccc32)CC1 [Ketotifen fumarate],amount absorbed into the lens,[1]; 0.025% solution,35 µg
same,amount released during a short burst period,[2]; drug absorbed into Dailies matrix from 0.025% solution,modest amount
same,amount retained in the matrix,"[2]; drug absorbed into Dailies matrix from 0.025% solution, after burst",approximately 30 μg
same,time for passive diffusion to come to equilibrium,[2]; [9],three
same,effect of albumin on trigger release,"[3]; drug absorbed into Dailies matrix, albumin",little effect
same,effect of positively charged proteins such as lysozyme on trigger release,"[3]; drug absorbed into Dailies matrix, lysozyme",significant enhanced effect
same,triggered release,[3]; [9],very effective further release
same,effect of positively charged tear protein (lysozyme) on trigger release,"[3]; drug loaded directly into Nelfilcon macromer, vortex eye model",enhanced
same,trigger release following passive diffusion,[3]; vortex eye model,enhanced triggered release susceptibility
"CC[C@@H]1/C=C(\C)C[C@H](C)C[C@H](OC)[C@H]2O[C@@](O)(C(=O)C(=O)N3CCCC[C@H]3C(=O)O[C@H](/C(C)=C/[C@@H]3CC[C@H](Cl)[C@H](OC)C3)[C@H](C)[C@@H](O)CC1=O)[C@H](C)C[C@@H]2OC [ASM981, Pimecrolimus]",aqueous passive and agitated release,[8],no release was observed
